Results on 22 compounds are retold here after patent US20240239788A1, “SMALL MOLECULE INHIBITORS OF KRAS G12D MUTANT” (Merck Sharp & Dohme LLC, priority 2021, published 2024).

SMILES strings stand for the structures. Read-outs that look alike come from different tables or passages of the source.

Test [1] deals with KRAS protein containing G12D mutation (Homo sapiens (Human), UniProt P01116, G12D). The test can be described thus: SOS-catalyzed nucleotide exchange assay (GNE), TR-FRET. It counts as biochemical. The conditions noted are these: biotinylated KRAS G12D, SOS and GTP, 60-minute incubation. The procedure:
Compounds are added to this complex and then after a 60-minute incubation time the mixture is treated with SOS and unlabeled GTP. Small molecule inhibitors stabilize the Bodipy-GDP complex whereas the untreated protein rapidly exchanges Bodipy-GDP for unlabeled GTP resulting in reduced TR-FRET signal.
This solution is referred to as biotinylated KRAS G12D stock solution.

For test [2], the system named is AsPC-1 cells containing homozygous KRAS-G12D activating mutation. The test can be described thus: Cellular phospho-ERK assay (Examples 1a-106). The class given is cell-based. To be noted: AsPC-1 cells, 2 hours, ratio of p-Erk vs total Erk, read-out: IC50 (nM) pERK (Cell). The text has this: 5% CO? overnight. […] Assay plates were read on a EnVision Multimode Plate Reader (PerkinElmer) and the ratio of p-Erk vs total Erk in each well was used as the final readout.

The target of test [3] is KRAS G12D / Ras binding domain of C-RAF (Homo sapiens (Human), UniProt P01116, G12D). The test can be described thus: RAS:RAF-RBD binding assay (cRaf), TR-FRET. To be noted: IC50 (nM) (cRaf), biotinylated KRAS G12D, GST-C-RAF RBD.
Chain of KRAS G12D / Ras binding domain of C-RAF (P01116 other isoform, or with tags, fused parts or gaps G12D (already in the parent)): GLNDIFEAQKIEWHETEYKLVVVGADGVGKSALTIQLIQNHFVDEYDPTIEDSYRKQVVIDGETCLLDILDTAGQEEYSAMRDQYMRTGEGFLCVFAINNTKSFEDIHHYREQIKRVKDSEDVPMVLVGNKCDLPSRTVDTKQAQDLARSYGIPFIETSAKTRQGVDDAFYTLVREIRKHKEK

Chain of KRAS protein containing G12D mutation (P01116 other isoform, or with tags, fused parts or gaps G12D (already in the parent)): as above

Consider `Cc1cc2[nH]ncc2c(-c2c(F)cc3c(N4C[C@H]5CC[C@@](C)(C4)N5)nc(OCC4(CN5CC[C@@H](F)C5)CC4)nc3c2F)c1C(F)(F)F` (single isomer, unassigned) [Ex 80a], for which the figures for the half-maximal inhibitory concentration (IC50) in test [1], in test [2] and in test [3] were 31.8 nM, 737 nM and 4050 nM, respectively.

As to `CN(C)CC1(COc2nc(N3C[C@@]4(C)CC[C@H]3CN4)c3cc(Cl)c(-c4cc(O)cc5ccccc45)c(F)c3n2)CC1` (single isomer, unassigned) [Example 38a], the concentration for half-maximal inhibition (IC50) in test [1] was found to be 45.2 nM; in test [2], 1280 nM; in test [3], 617 nM.

On to `CN(C)CC1(COc2nc(N3CC4CCC(C3)N4)c3cc(Cl)c(-c4cc(O)ccc4[Si](C)(C)C)c(F)c3n2)CC1` [Example 45, 3-(4-(3,8-diazabicyclo[3.2.1]octan-3-yl)-6-chloro-2-((1-((dimethylamino)methyl)cyclopropyl)methoxy)-8-fluoroquinazolin-7-yl)-4-(trimethylsilyl)phenol], for which the IC50 in test [1] was found to be 376 nM; in test [2] (Homo sapiens, ASPC1, 2 h), 5470 nM; in test [3], 31600 nM.

With `CN(C)CC1(COc2nc(N3C[C@H]4CC[C@@](C)(C3)N4)c3nnc(-c4cc(O)cc5ccccc45)cc3n2)CC1` [Ex. 101, 4-(6-((1-((dimethylamino)methyl)cyclopropyl)methoxy)-8-((1S,5R)-1-methyl-3,8-diazabicyclo[3.2.1]octan-3-yl)pyrimido[5,4-c]pyridazin-3-yl)naphthalen-2-ol], the concentration for half-maximal inhibition (IC50) was 1020 nM in test [1]; 42200 nM in test [2] (Homo sapiens, ASPC1, 2 h); 20900 nM in test [3].

On to `CCC12CCC(CN(c3nc(OCC4(CN(C)C)CC4)nc4c(F)c(-c5cc(O)cc6ccccc56)c(F)cc34)C1)N2` (centres unmarked) [Example 33, 4-(2-((1-((dimethylamino)meth-yl)cyclopro-pyl)methoxy)-4-(1-ethyl-3,8-diazabicy-clo[3.2.1]octan-3-yl)-6,8-difluoroquinazolin-7-yl)naphthalen-2-ol], for which the concentration for half-maximal inhibition (IC50) in test [1] amounted to 88.5 nM; in test [2] (Homo sapiens, ASPC1, 2 h), 3450 nM; in test [3], 5070 nM.

Take `Nc1nc2c(-c3c(F)cc4c(N5CC6CCC(C5)N6)nc(OCC5(CN6CC[C@@H](F)C6)CC5)nc4c3F)ccc(F)c2s1` [Example 61]: the concentration for half-maximal inhibition (IC50) in test [1] was 38.7 nM; in test [2] (Homo sapiens, ASPC1, 2 h), 7580 nM; in test [3], 3350 nM.

As to `C[C@@]12CC[C@@H](CN(c3nc(OCC4(CN5CC[C@@H](F)C5)CC4)nc4c3CCN(c3cccc5cccc(Br)c35)C4)C1)N2` [compound 94, 7-(8-bromonaphthalen-1-yl)-2-((1-(((R)-3-fluoropyrroli-din-1-yl)methyl)cyclopropyl)methoxy)-4-((1S,5R)-1-methyl-3,8-diazabicyclo[3.2.1]octan-3-yl)-5,6,7,8-tetrahydropyrido[3,4-d]pyrimidine], the IC50 in test [1] stood at 116 nM; in test [2] (Homo sapiens, ASPC1, 2 h) it was 8470 nM; in test [3] it was 32900 nM.

As for `CN(C)C[C@@]1(COc2nc(N3C[C@H]4CC[C@@](C)(C3)N4)c3cnc(-c4cc(O)cc5cccc(Cl)c45)c(F)c3n2)CC1(F)F` [Ex. 100, 5-chloro-4-(2-(((R)-1-((dimethylamino)methyl)-2,2-difluorocyclopropyl)methoxy)-8-fluoro-4-((1S,5R)-1-methyl-3,8-diazabicyclo[3.2.1]octan-3-yl)pyrido[4,3-d]pyrimidin-7-yl)naphthalen-2-ol], the half-maximal inhibitory concentration (IC50) turned out to be 1.56 nM in test [1]; 99.8 nM in test [2] (Homo sapiens, ASPC1, 2 h); 89.9 nM in test [3].

As for `Nc1nc2c(-c3c(Cl)cc4c(N5CC6CCC(C5)N6)nc(OCC5(CN6CCOCC6)CC5)nc4c3F)ccc(F)c2s1` [Example 62, 4-(4-(3,8-diazabicyclo[3.2.1]octan-3-yl)-6-chloro-8-fluoro-2-((1-(morpholinomethyl)cyclopropyl)methoxy)quinazolin-7-yl)-7-fluorobenzo[d]thiazol-2-amine], the 50% inhibitory concentration (IC50) in test [1] amounted to 3.83 nM; in test [2] (Homo sapiens, ASPC1, 2 h), 1860 nM; in test [3], 334 nM.

Turning to `CN(C)CC1(COc2nc(N3CC4CC(O)C(C3)N4)c3cc(Cl)c(-c4cc(O)cc5ccccc45)c(F)c3n2)CC1` (single isomer, unassigned) [Example 23, 3-(6-chloro-2-((1-((dimethyalmino)meth-yl)cyclopropyl)meth-oxy)-8-fluoro-7-(3-hydroxynaphthalen-1-yl)quinazolin-4-yl)-3,8-diazabicyclo[3.2.1]oc-tan-6-ol], the half-inhibitory concentration (IC50) is 4280 nM in test [1] and 44800 nM in test [2].

`CC[C@@H]1[C@@H]2CC[C@@H](CN2)N1c1nc(OCC2(CN(C)C)CC2)nc2c(F)c(-c3cc(O)cc4ccccc34)c(F)cc12` [Example 10, 4-(2-((1-((dimethylamino)methyl)cyclopropyl)methoxy)-4-((1S,3R,4S)-3-ethyl-2,5-diazabicyclo[2,2,2]octan-2-yl)-6,8-difluoroquinazolin-7-yl)naphthalen-2-ol]: the half-maximal inhibitory concentration (IC50) in test [1] was 2750 nM; in test [2] (Homo sapiens, ASPC1, 2 h) it was 9830 nM.

With `CN(C)CC1(COc2nc(N3CC4CC(O)C(C3)N4)c3cc(Cl)c(-c4cc(O)cc5ccccc45)c(F)c3n2)CC1` (single isomer, unassigned) [Example 19a], the half-inhibitory concentration (IC50) in test [1] is 1180 nM; in test [2] (Homo sapiens, ASPC1, 2 h) it was 50800 nM.

For `CN(C)CC1(COc2nc(N3CC4CCC(C3)N4)c3cc(Cl)c(-c4c(Cl)c(F)cc5[nH]ncc45)c(F)c3n2)CC1` [Example 55, 1-(1-(((4-(3,8-diazabicyclo[3.2.1]octan-3-yl)-6-chloro-7-(5-chloro-6-fluoro-1H-indazol-4-yl)-8-fluoroquinazolin-2-yl)oxy)methyl)cyclopropyl)-N,N-dimethylmethanamine], the IC50 in test [1] stood at 969 nM; in test [2] (Homo sapiens, ASPC1, 2 h), 7060 nM.

Consider `Cc1cc2[nH]ncc2c(C2Cc3nc(OCC4(CN5CC[C@@H](F)C5)CC4)nc(N4C[C@H]5CC[C@@](C)(C4)N5)c3CO2)c1C(F)(F)F` (stereo partly drawn) [Ex. 97, 2-((1-(((R)-3-fluoropyrrolidin-1-yl)methyl)cyclopropyl)methoxy)-7-(6-methyl-5-(trifluoromethyl)-1H-indazol-4-yl)-4-((1S,5R)-1-methyl-3,8-diazabicyclo[3.2.1]octan-3-yl)-7,8-dihydro-5H-pyrano[4,3-d]pyrimidine], for which the IC50 in test [1] was found to be 3950 nM; in test [2] (Homo sapiens, ASPC1, 2 h), 24300 nM.

For `Oc1cc(-c2c(F)cc3c(N4CC5NC(C4)C(O)C5O)nc(OCC4(CN5CCOCC5)CC4)nc3c2F)c2ccccc2c1` (centres unmarked) [Ex. 2, 3-(6,8-difluoro-7-(3-hydroxynaphthalen-1-yl)-2-((1-(morpholinomethyl)cyclopropyl)methoxy)quinazolin-4-yl)-3,8-diazabicyclo[3.2.1]octane-6,7-diol], the IC50 in test [1] is 660 nM; in test [2] (Homo sapiens, ASPC1, 2 h), 33200 nM.

For `Cc1cc2[nH]ncc2c(-c2c(F)cc3c(N4C[C@H]5CC[C@@](C)(C4)N5)nc(OCC4(CN5CC[C@@H](F)C5)CC4)nc3c2F)c1C(F)(F)F` (single isomer, unassigned) [Ex 80b], the half-inhibitory concentration (IC50) in test [1] was determined as 1320 nM; in test [2], 5970 nM.

As to `CN(C)CC1(COc2nc(N3C[C@@]4(C)CC[C@H]3CN4)c3cc(Cl)c(-c4cc(O)cc5ccccc45)c(F)c3n2)CC1` (single isomer, unassigned) [Example 38b], the IC50 turned out to be 3400 nM in test [1] and 22200 nM in test [2].

Regarding `CN(C)CC1(COc2nc(N3CC4NC(C3)C3CC43)c3cc(Cl)c(-c4cc(O)cc5ccccc45)c(F)c3n2)CC1` (centres unmarked) [Example 30, 4-(6-chloro-2-((1-((dimethylamino)meth-yl)cyclopropyl)meth-oxy)-8-fluoro-4-(7,9-diazatri-cyclo[3.3.1.02,4]nonan-7-yl)quinazolin-7-yl)naphthalen-2-ol], the concentration for half-maximal inhibition (IC50) worked out at 7610 nM in test [1] and 30100 nM in test [2] (Homo sapiens, ASPC1, 2 h).

For the compound `CN(C)CC1(COc2nc(N3CC4CC(O)C(C3)N4)c3cc(Cl)c(-c4cc(O)cc5ccccc45)c(F)c3n2)CC1` (single isomer, unassigned) [Example 19b], the values for the IC50 in test [1] and in test [2] were 1790 nM and 50800 nM, respectively.

Regarding `CN(C)CC1(COc2nc(N3C[C@H]4CC[C@@H](C3)N4)c3cc(Cl)c(-c4c(C(F)(F)F)ccc5[nH]ncc45)c(F)c3n2)CC1` [Example 63, 1-(1-(((4-((1R,5S)-3,8-diazabicyclo [3.2.1]octan-3-yl)-6-chloro-8-fluoro-7-(5-(trifluoromethyl)-1H-indazol-4-yl)quinazolin-2-yl)oxy)methyl)cyclopropyl)-N,N-dimethylmethanamine], the IC50 in test [1] stood at 1590 nM; in test [2] (Homo sapiens, ASPC1, 2 h), 26800 nM.

`Cc1cc2[nH]ncc2c(-c2c(F)cc3c(N4C[C@H]5CC[C@@H](C4)N5)nc(OCC4(CN(C)C)CC4(F)F)nc3c2F)c1Cl` (stereo partly drawn) [Example 64, 1-(1-(((4-((1R,5S)-3,8-diazabicyclo[3.2.1]octan-3-yl)-7-(5-chloro-6-methyl-1H-indazol-4-yl)-6,8-difluoroquinazolin-2-yl)oxy)methyl)-2,2-difluorocyclopropyl)-N,N-dimethylmethanamine]: the 50% inhibitory concentration (IC50) in test [1] was 146 nM; in test [2] (Homo sapiens, ASPC1, 2 h) it was 4380 nM.

With `Oc1cc(-c2c(Cl)cc3c(N4CC5NC(C4)C(O)C5O)nc(OCC4(CN5CCOCC5)CC4)nc3c2F)c2ccccc2c1` (centres unmarked) [Ex. 1a, 3-(6-chloro-8-fluoro-7-(3-hydroxynaphthalen-1-yl)-2-((1-(morpholinomethyl)cyclopropyl)methoxy)quinazolin-4-yl)-3,8-diazabicyclo[3.2.1]octane-6,7-diol], the IC50 in test [1] was 742 nM; in test [2] (Homo sapiens, ASPC1, 2 h) it was 14600 nM.
